Laboratory results as given in US10820591B2, “Substituted sulfonyl amides for controlling animal pests” (Bayer Aktiengesellschaft, priority 2016, dated 2020).

These compounds were tested on Meloidogyne incognita (assay: Meloidogyne incognita test (sand, lettuce, gall formation)). Settings: 20 ppm, after 14 days.
Assay type: in vivo
Method: Meloidogyne incognita Test [table] To produce a suitable active compound preparation, 1 part by weight of active compound is mixed with the stated amount of solvent and the concentrate is diluted to the desired concentration with water. Vessels are filled with sand, active compound solution, an egg/larvae suspension of the southern root-knot nematode (Meloidogyne incognita) and lettuce seeds. The lettuce seeds germinate and the plants develop. The galls develop on the roots. After 14 days, the nematicidal efficacy in % is determined by the formation of galls. 100% means that no galls were found; 0% means that the number of galls on the treated plants corresponds to the untreated control.
With `COc1ccc(Cl)c(S(=O)(=O)NC(=O)c2cn(-c3cc(Cl)cc(Cl)c3)cn2)c1` [I-217] the “nematicidal efficacy (formation of galls)” value was 90%.

Same assay, conditions: Meloidogyne incognita, 336 h, 20 ppm, after 14 days; read-out: nematicidal efficacy (formation of galls)
In the case of `O=C(NS(=O)(=O)c1ccccc1)c1cn(-c2ccc(C(F)(F)F)cc2Cl)cn1` [I-194], the pest or weed control at 20 ppm is reported as 100%.
Work on `O=C(NS(=O)(=O)c1ccccc1)c1cn(-c2cc(Cl)ccc2Cl)cn1` [I-195] yielded a pest or weed control at 20 ppm of 100%.
With `O=C(NS(=O)(=O)c1ccccc1Cl)c1cn(-c2ccc(Cl)c(Cl)c2)cn1` [I-196] the pest or weed control at 20 ppm was 100%.
Compound `O=C(NS(=O)(=O)c1c(Cl)cccc1Cl)c1cn(-c2ccc(C(F)(F)F)cc2Cl)cn1` [I-198] has a pest or weed control at 20 ppm of 100%.
Compound `O=C(NS(=O)(=O)c1ccccc1)c1cn(-c2ccc(Cl)cc2Cl)cn1` [I-199] has a pest or weed control at 20 ppm of 100%.
`O=C(NS(=O)(=O)c1ccccc1Cl)c1cn(-c2ccc(Cl)cc2Cl)cn1` [I-200] was tested, and the pest or weed control at 20 ppm was 100%.
In the case of `O=C(NS(=O)(=O)c1ccc(Cl)cc1)c1cn(-c2ccc(Cl)cc2Cl)cn1` [I-201], the pest or weed control at 20 ppm is reported as 80%.
`O=C(NS(=O)(=O)c1ccc(Cl)cc1)c1cn(-c2ccc(Cl)c(Cl)c2)cn1` [I-202] gave a pest or weed control at 20 ppm of 70%.
`O=C(NS(=O)(=O)c1ccccc1Cl)c1cn(-c2cc(Cl)ccc2Cl)cn1` [I-203] gave a pest or weed control at 20 ppm of 100%.
In the case of `O=C(NS(=O)(=O)c1ccc(Cl)cc1)c1cn(-c2cc(Cl)ccc2Cl)cn1` [I-204], the pest or weed control at 20 ppm is reported as 100%.
In the case of `O=C(NS(=O)(=O)c1c(Cl)cccc1Cl)c1cn(-c2cc(Cl)ccc2Cl)cn1` [I-205], the pest or weed control at 20 ppm is reported as 100%.
For `O=C(NS(=O)(=O)c1c(Cl)cccc1Cl)c1cn(-c2ccc(Cl)cc2Cl)cn1` [I-206], the pest or weed control at 20 ppm was 100%.
`O=C(NS(=O)(=O)c1cccc(Cl)c1)c1cn(-c2ccc(C(F)(F)F)cc2Cl)cn1` [I-207] showed a pest or weed control at 20 ppm of 100%.
`O=C(NS(=O)(=O)c1ccc(Cl)cc1Cl)c1cn(-c2ccc(Cl)cc2Cl)cn1` [I-208] showed a pest or weed control at 20 ppm of 100%.
With `Cc1ccc(-n2cnc(C(=O)NS(=O)(=O)c3ccccc3)c2)cc1` [I-209] the pest or weed control at 20 ppm was 90%.
`Cc1ccc(-n2cnc(C(=O)NS(=O)(=O)c3ccccc3Cl)c2)cc1` [I-210] was tested, and the pest or weed control at 20 ppm was 100%.
In the case of `COc1ccc(-n2cnc(C(=O)NS(=O)(=O)c3ccccc3)c2)cc1` [I-211], the pest or weed control at 20 ppm is reported as 100%.
With `Cc1ccc(-n2cnc(C(=O)NS(=O)(=O)c3c(Cl)cccc3Cl)c2)cc1` [I-212] the pest or weed control at 20 ppm was 90%.
In the case of `COc1ccc(Cl)c(S(=O)(=O)NC(=O)c2cn(-c3ccc(C)cc3)cn2)c1` [I-213], the pest or weed control at 20 ppm is reported as 90%.
`O=C(NS(=O)(=O)c1ccccc1Cl)c1cn(-c2ccc(F)cc2F)cn1` [I-215] showed a pest or weed control at 20 ppm of 100%.
In the case of `COc1ccc(Cl)c(S(=O)(=O)NC(=O)c2cn(-c3ccc(Cl)cc3Cl)cn2)c1` [I-216], the pest or weed control at 20 ppm is reported as 90%.
`COc1ccc(Cl)c(S(=O)(=O)NC(=O)c2cn(-c3ccc(Cl)c(Cl)c3)cn2)c1` [I-218] gave a pest or weed control at 20 ppm of 70%.
`COc1ccc(Cl)c(S(=O)(=O)NC(=O)c2cn(-c3ccc(C(F)(F)F)cc3Cl)cn2)c1` [I-219] was tested, and the pest or weed control at 20 ppm was 90%.
`O=C(NS(=O)(=O)c1ccccc1)c1cn(-c2ccccc2F)cn1` [I-221] gave a pest or weed control at 20 ppm of 90%.
With `O=C(NS(=O)(=O)c1c(F)cccc1F)c1cn(-c2cc(Cl)cc(Cl)c2)cn1` [I-222] the pest or weed control at 20 ppm was 100%.
Compound `O=C(NS(=O)(=O)c1c(F)cccc1F)c1cn(-c2ccc(C(F)(F)F)cc2Cl)cn1` [I-223] has a pest or weed control at 20 ppm of 100%.
Work on `O=C(NS(=O)(=O)c1c(F)cccc1F)c1cn(-c2ccccc2OC(F)(F)F)cn1` [I-224] yielded a pest or weed control at 20 ppm of 90%.
In the case of `O=C(NS(=O)(=O)c1ccccc1Cl)c1cn(-c2ccccc2OC(F)(F)F)cn1` [I-225], the pest or weed control at 20 ppm is reported as 100%.
`O=C(NS(=O)(=O)c1c(Cl)cccc1Cl)c1cn(-c2ccccc2OC(F)(F)F)cn1` [I-226] showed a pest or weed control at 20 ppm of 100%.
In the case of `COc1ccc(Cl)c(S(=O)(=O)NC(=O)c2cn(-c3ccccc3OC(F)(F)F)cn2)c1` [I-227], the pest or weed control at 20 ppm is reported as 100%.
`COc1ccc(Cl)c(S(=O)(=O)NC(=O)c2cn(-c3ccccc3F)cn2)c1` [I-228] gave a pest or weed control at 20 ppm of 90%.
In the case of `O=C(NS(=O)(=O)c1ccccc1Cl)c1cn(-c2ccccc2F)cn1` [I-229], the pest or weed control at 20 ppm is reported as 100%.
`O=C(NS(=O)(=O)c1cc(Cl)ccc1Cl)c1cn(-c2cc(Cl)cc(Cl)c2)cn1` [I-230] showed a pest or weed control at 20 ppm of 100%.
`COc1ccc(Cl)cc1S(=O)(=O)NC(=O)c1cn(-c2cc(Cl)ccc2Cl)cn1` [I-231] showed a pest or weed control at 20 ppm of 100%.
In the case of `O=C(NS(=O)(=O)c1cc(Cl)ccc1Cl)c1cn(-c2ccccc2F)cn1` [I-232], the pest or weed control at 20 ppm is reported as 100%.
Work on `O=C(NS(=O)(=O)c1cc(F)ccc1F)c1cn(-c2cc(Cl)ccc2Cl)cn1` [I-233] yielded a pest or weed control at 20 ppm of 100%.
Work on `O=C(NS(=O)(=O)c1cc(F)ccc1F)c1cn(-c2cc(Cl)cc(Cl)c2)cn1` [I-234] yielded a pest or weed control at 20 ppm of 70%.
Work on `O=C(NS(=O)(=O)c1cc(C(F)(F)F)ccc1Br)c1cn(-c2cc(Cl)cc(Cl)c2)cn1` [I-235] yielded a pest or weed control at 20 ppm of 90%.
In the case of `O=C(NS(=O)(=O)c1ccccc1)c1cn(-c2cc(F)cc(Cl)c2)cn1` [I-236], the pest or weed control at 20 ppm is reported as 90%.
`O=C(NS(=O)(=O)c1ccccc1)c1cn(-c2cc(F)cc(F)c2)cn1` [I-237] gave a pest or weed control at 20 ppm of 90%.
With `O=C(NS(=O)(=O)c1ccccc1Cl)c1cn(-c2cc(F)cc(C(F)(F)F)c2)cn1` [I-238] the pest or weed control at 20 ppm was 90%.
`O=C(NS(=O)(=O)c1c(Cl)cccc1Cl)c1cn(-c2cc(F)cc(C(F)(F)F)c2)cn1` [I-239] showed a pest or weed control at 20 ppm of 100%.
`O=C(NS(=O)(=O)c1ccccc1Cl)c1cn(-c2cc(F)cc(Cl)c2)cn1` [I-240] showed a pest or weed control at 20 ppm of 100%.
Work on `O=C(NS(=O)(=O)c1c(Cl)cccc1Cl)c1cn(-c2cc(F)cc(Cl)c2)cn1` [I-241] yielded a pest or weed control at 20 ppm of 90%.
Work on `O=C(NS(=O)(=O)c1ccccc1Cl)c1cn(-c2cccc(Cl)c2Cl)cn1` [I-242] yielded a pest or weed control at 20 ppm of 100%.
Work on `O=C(NS(=O)(=O)c1c(Cl)cccc1Cl)c1cn(-c2cccc(Cl)c2Cl)cn1` [I-243] yielded a pest or weed control at 20 ppm of 100%.
`O=C(NS(=O)(=O)c1ccccc1Cl)c1cn(-c2c(Cl)cccc2Cl)cn1` [I-244] showed a pest or weed control at 20 ppm of 100%.
For `O=C(NS(=O)(=O)c1c(Cl)cccc1Cl)c1cn(-c2c(Cl)cccc2Cl)cn1` [I-245], the pest or weed control at 20 ppm was 100%.
Compound `COc1ccc(Cl)c(S(=O)(=O)NC(=O)c2cn(-c3cccc(Cl)c3Cl)cn2)c1` [I-246] has a pest or weed control at 20 ppm of 100%.
In the case of `COc1ccc(Cl)c(S(=O)(=O)NC(=O)c2cn(-c3cc(F)cc(Cl)c3)cn2)c1` [I-247], the pest or weed control at 20 ppm is reported as 100%.
For `O=C(NS(=O)(=O)c1c(F)cccc1F)c1cn(-c2cccc(Cl)c2Cl)cn1` [I-248], the pest or weed control at 20 ppm was 100%.
Compound `O=C(NS(=O)(=O)c1c(F)cccc1F)c1cn(-c2cc(F)cc(C(F)(F)F)c2)cn1` [I-249] has a pest or weed control at 20 ppm of 100%.
For `COc1ccc(Cl)c(S(=O)(=O)NC(=O)c2cn(-c3c(Cl)cccc3Cl)cn2)c1` [I-251], the pest or weed control at 20 ppm was 90%.
For `Cc1nc(C(=O)NS(=O)(=O)c2ccccc2Cl)cn1-c1ccccc1` [I-252], the pest or weed control at 20 ppm was 100%.
Compound `Cc1nc(C(=O)NS(=O)(=O)c2ccccc2)cn1-c1ccc(Cl)cc1` [I-256] has a pest or weed control at 20 ppm of 100%.
`Cc1nc(C(=O)NS(=O)(=O)c2ccccc2Cl)cn1-c1ccc(Cl)cc1` [I-257] gave a pest or weed control at 20 ppm of 90%.
For `Cc1nc(C(=O)NS(=O)(=O)c2c(Cl)cccc2Cl)cn1-c1ccc(Cl)cc1` [I-258], the pest or weed control at 20 ppm was 70%.
`COc1ccc(Cl)c(S(=O)(=O)NC(=O)c2cn(-c3ccc(Cl)cc3)c(C)n2)c1` [I-259] showed a pest or weed control at 20 ppm of 100%.
In the case of `COc1ccc(Cl)c(S(=O)(=O)NC(=O)c2cn(-c3ccccc3F)c(C)n2)c1` [I-260], the pest or weed control at 20 ppm is reported as 70%.
`Cc1nc(C(=O)NS(=O)(=O)c2cccc(Cl)c2)cn1-c1ccc(Cl)cc1` [I-261] gave a pest or weed control at 20 ppm of 100%.
Compound `Cc1nc(C(=O)NS(=O)(=O)c2ccc(Cl)cc2)cn1-c1ccc(Cl)cc1` [I-262] has a pest or weed control at 20 ppm of 100%.
`COc1ccc(Cl)c(S(=O)(=O)NC(=O)c2cn(-c3cccc(Cl)c3Cl)c(C)n2)c1` [I-263] showed a pest or weed control at 20 ppm of 90%.
`Cc1nc(C(=O)NS(=O)(=O)c2c(Cl)cccc2Cl)cn1-c1ccccc1Cl` [I-265] gave a pest or weed control at 20 ppm of 90%.
`Cc1nc(C(=O)NS(=O)(=O)c2c(Cl)cccc2Cl)cn1-c1cccc(Cl)c1Cl` [I-267] was tested, and the pest or weed control at 20 ppm was 100%.
Compound `Cc1nc(C(=O)NS(=O)(=O)c2ccccc2)cn1-c1ccccc1Cl` [I-270] has a pest or weed control at 20 ppm of 90%.
`Cc1nc(C(=O)NS(=O)(=O)c2ccc(Cl)cc2)cn1-c1cccc(Cl)c1Cl` [I-271] gave a pest or weed control at 20 ppm of 100%.
With `O=C(NS(=O)(=O)c1ccccc1)c1cn(-c2cc(Cl)cc(C(F)(F)F)c2)cn1` [I-272] the pest or weed control at 20 ppm was 90%.
`O=C(NS(=O)(=O)c1ccccc1)c1cn(-c2cc(Br)cc(Br)c2)cn1` [I-273] was tested, and the pest or weed control at 20 ppm was 90%.
`Cc1nc(C(=O)NS(=O)(=O)c2c(Cl)cccc2Cl)cn1-c1cccc(C(F)(F)F)c1` [I-274] showed a pest or weed control at 20 ppm of 90%.
Work on `COc1ccc(Cl)c(S(=O)(=O)NC(=O)c2cn(-c3cccc(C(F)(F)F)c3)c(C)n2)c1` [I-275] yielded a pest or weed control at 20 ppm of 100%.
Work on `O=C(NS(=O)(=O)c1ccccc1)c1cn(-c2cc(Br)cc(C(F)(F)F)c2)cn1` [I-276] yielded a pest or weed control at 20 ppm of 70%.
With `O=C(NS(=O)(=O)c1ccccc1Cl)c1cn(-c2cc(Br)cc(C(F)(F)F)c2)cn1` [I-277] the pest or weed control at 20 ppm was 70%.
For `O=C(NS(=O)(=O)c1ccccc1Cl)c1cn(-c2cc(Cl)cc(C(F)(F)F)c2)cn1` [I-278], the pest or weed control at 20 ppm was 90%.
For `COc1ccc(Cl)c(S(=O)(=O)NC(=O)c2cn(-c3cc(Br)cc(C(F)(F)F)c3)cn2)c1` [I-279], the pest or weed control at 20 ppm was 90%.
`COc1ccc(Cl)c(S(=O)(=O)NC(=O)c2cn(-c3cc(Cl)cc(C(F)(F)F)c3)cn2)c1` [I-280] was tested, and the pest or weed control at 20 ppm was 90%.
For `COc1ccc(Cl)c(S(=O)(=O)NC(=O)c2cn(-c3cc(C)cc(C(F)(F)F)c3)cn2)c1` [I-281], the pest or weed control at 20 ppm was 90%.
